The assay has as its target T1, GST-PLK1 (Homo sapiens, UniProt P53350).
T1 construct: Full-length, active GST-PLK1 is purified from Sf9 insect cells; made in house; host or cells: Sf9 insect cells
Description: Biochemical Characterization Assay: GST-PLK1 kinase HTRF assay with GST-p53 substrate. Conditions: full-length GST-PLK1, GST-p53 and ATP, 37° C. for 35 minutes, HTRF signal. As for the experimental part:
Biochemical Characterization Assay
Full-length, active GST-PLK1 is purified from Sf9 insect cells, and full-length GST-p53 is purified from E. coli. Anti-phospho p53 antibody is from Cell Signaling Technology. Europium-conjugated anti-rabbit antibody is from PerkinElmer Life and Analytical Sciences. APC-conjugated anti-GST antibody is from Prozyme.
To assay compounds of the invention, two microliters of test compound (0.6 nM-4 mM) in DMSO or plain DMSO for control wells, 38 microliters of 20 mM HEPES pH 7, 50 mM NaCl, 10 mM MgCl2, 0.5 mM TCEP, 0.1 mM sodium orthovanadate, 0.1 mg/mL BSA, and 0.05% Triton X-100 (Kinase Assay Buffer) are added. […] Six microliters of GST-PLK1 (3 ug/mL) in Kinase Assay Buffer are then added and the solution incubated at 37° C. for 35 minutes. Six microliters of solution containing 43 mM EDTA to stop the reaction and a 1:600 dilution of anti-phospho-p53 antibody in 20 mM HEPES pH 7, 50 mM NaCl, and 0.5 mg/mL BSA (Antibody Binding Buffer) are added and the solution incubated at 37° C. for 30 minutes. […] The HTRF signal is read on an Envision reader from PerkinElmer Life and Analytical Sciences.

T1 sequence (P53350 whole entry): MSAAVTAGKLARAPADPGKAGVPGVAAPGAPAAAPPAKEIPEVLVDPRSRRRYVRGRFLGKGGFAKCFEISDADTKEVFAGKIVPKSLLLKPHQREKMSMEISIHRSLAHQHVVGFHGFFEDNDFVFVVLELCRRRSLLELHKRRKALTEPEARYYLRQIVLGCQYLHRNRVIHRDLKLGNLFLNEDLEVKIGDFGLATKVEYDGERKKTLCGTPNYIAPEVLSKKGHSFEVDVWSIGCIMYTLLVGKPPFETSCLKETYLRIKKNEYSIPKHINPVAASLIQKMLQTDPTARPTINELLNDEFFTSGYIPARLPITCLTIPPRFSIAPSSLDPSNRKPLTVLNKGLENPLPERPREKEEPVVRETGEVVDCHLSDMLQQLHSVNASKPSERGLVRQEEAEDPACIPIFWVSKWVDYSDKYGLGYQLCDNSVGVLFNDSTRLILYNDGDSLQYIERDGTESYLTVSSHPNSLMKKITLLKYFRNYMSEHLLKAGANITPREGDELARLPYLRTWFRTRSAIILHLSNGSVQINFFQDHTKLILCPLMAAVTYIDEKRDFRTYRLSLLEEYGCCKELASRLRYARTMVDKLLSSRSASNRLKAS

As to `CCCC1CN(C2CCCC2)c2nc(Nc3ccc(C(=O)NC4CCN(C)CC4)cc3OC)ncc2N(C)C1=O` (racemic) [I-17, (rac)-4-(9-Cyclopentyl-5-methyl-6-oxo-7-propyl-6,7,8,9-tetrahydro-5H-pyrimido[4,5-b][1,4]diazepin-2-ylamino)-3-methoxy-N-(1-methyl-piperidin-4-yl)-benzamide], the IC50 lay in the range of 0.5 to 5 µM.
In the case of `COc1cc(C(=O)NC2CCN(C)CC2)ccc1Nc1ncc2c(n1)N(Cc1ccccc1)CCC(=O)N2C` [I-22, 4-(9-Benzyl-5-methyl-6-oxo-6,7,8,9-tetrahydro-5H-pyrimido[4,5-b][1,4]diazepin-2-ylamino)-3-methoxy-N-(1-methyl-piperidin-4-yl)-benzamide] it was 0.5 to 5 µM; in that of `COc1cc(C(=O)NC2CCN(C)CC2)ccc1Nc1ncc2c(n1)N(CC1CCCC1)CC(C)C(=O)N2C` (racemic) [I-55, (rac)-4-(9-Cyclopentylmethyl-5,7-dimethyl-6-oxo-6,7,8,9-tetrahydro-5H-pyrimido[4,5-b][1,4]diazepin-2-ylamino)-3-methoxy-N-(1-methyl-piperidin-4-yl)-benzamide], below 0.5 µM.
To `CN1CCC(NC(=O)c2ccc(Nc3ncc4c(n3)N(C3CCCC3)CC3(CC3)C(=O)N4C)cc2)CC1` [I-62, 4-[(9-Cyclopentyl-6,7,8,9-tetrahydro-5-methyl-6-oxospiro[5H-pyrimido[4,5-b][1,4]diazepine-7,1′-cyclopropan]-2-yl)amino]-N-(1-methyl-4-piperidinyl)benzamide] belongs below 0.5 µM; to `CCCNC(=O)c1ccc(Nc2ncc3c(n2)N(C2CCCCC2)CCC(=O)N3)c(OC)c1` [I-30, 4-(9-Cyclohexyl-6-oxo-6,7,8,9-tetrahydro-5H-pyrimido[4,5-b][1,4]diazepin-2-ylamino)-3-methoxy-N-propyl-benzamide], above 5 µM; to `CC1CN(C2CCCC2)c2nc(Nc3ccc(C(=O)NC4CCOCC4)c(Cl)c3)ncc2N(C)C1=O` (racemic) [I-88, (rac)-2-Chloro-4-(9-cyclopentyl-5,7-dimethyl-6-oxo-6,7,8,9-tetrahydro-5H-pyrimido[4,5-b][1,4]diazepin-2-ylamino)-N-(tetrahydro-pyran-4-yl)-benzamide], 0.5 to 5 µM.
To `COc1cc(C(=O)NC2CCN(C)CC2)ccc1Nc1ncc2c(n1)N(C1CCCC1)C(C)C(C)C(=O)N2C` (racemic) [I-41, (rac)-4-(9-Cyclopentyl-5,7,8-trimethyl-6-oxo-6,7,8,9-tetrahydro-5H-pyrimido[4,5-b][1,4]diazepin-2-ylamino)-3-methoxy-N-(1-methyl-piperidin-4-yl)-benzamide] belongs below 0.5 µM; to `COc1cc(C(=O)NN)ccc1Nc1ncc2c(n1)N(C1CCCC1)CC(C)C(=O)N2C` (racemic) [I-79, (rac)-4-(9-Cyclopentyl-5,7-dimethyl-6-oxo-6,7,8,9-tetrahydro-5H-pyrimido[4,5-b][1,4]diazepin-2-ylamino)-3-methoxy-benzoic acid hydrazide], below 0.5 µM; to `COc1cc(C(=O)NC2CCN(C)CC2)ccc1Nc1ncc2c(n1)N(C1CCCC1)C(C)CC(=O)N2C` (racemic) [I-4, (rac)-4-(9-Cyclopentyl-5,8-dimethyl-6-oxo-6,7,8,9-tetrahydro-5H-pyrimido[4,5-b][1,4]diazepin-2-ylamino)-3-methoxy-N-(1-methyl-piperidin-4-yl)-benzamide], below 0.5 µM.
Take `CCN1CCC(NC(=O)c2ccc(Nc3ncc4c(n3)N(C3CCCC3)CC(C)C(=O)N4C)cc2Cl)CC1` (racemic) [I-81, (rac)-2-Chloro-4-(9-cyclopentyl-5,7-dimethyl-6-oxo-6,7,8,9-tetrahydro-5H-pyrimido[4,5-b][1,4]diazepin-2-ylamino)-N-(1-ethyl-piperidin-4-yl)-benzamide]: the concentration for half-maximal inhibition (IC50) is 0.5 to 5 µM.
For `CCCCN1CCC(=O)N(C)c2cnc(Nc3ccc(C(=O)NC4CCN(C)CC4)cc3OC)nc21` [I-44, 4-(9-Butyl-5-methyl-6-oxo-6,7,8,9-tetrahydro-5H-pyrimido[4,5-b][1,4]diazepin-2-ylamino)-3-methoxy-N-(1-methyl-piperidin-4-yl)-benzamide], the IC50 is below 0.5 µM.
To `CC1CN(C2CCCC2)c2nc(Nc3ccc(C(=O)NC4CCN(C)CC4)cc3)ncc2N(C)C1=O` (racemic) [I-6, (rac)-4-(9-Cyclopentyl-5,7-dimethyl-6-oxo-6,7,8,9-tetrahydro-5H-pyrimido[4,5-b][1,4]diazepin-2-ylamino)-N-(1-methyl-piperidin-4-yl)-benzamide] belongs below 0.5 µM; to `CC1CN(C2CCCC2)c2nc(Nc3ccc(C(=O)Nc4ccncc4)c(Cl)c3)ncc2N(C)C1=O` (racemic) [I-86, (rac)-2-Chloro-4-(9-cyclopentyl-5,7-dimethyl-6-oxo-6,7,8,9-tetrahydro-5H-pyrimido[4,5-b][1,4]diazepin-2-ylamino)-N-pyridin-4-yl-benzamide], above 5 µM; to `COc1cc(C(=O)N(C)C)ccc1Nc1ncc2c(n1)N(C1CCC1)CCC(=O)N2C` [I-35, 4-(9-Cyclobutyl-5-methyl-6-oxo-6,7,8,9-tetrahydro-5H-pyrimido[4,5-b][1,4]diazepin-2-ylamino)-3-methoxy-N,N-dimethyl-benzamide], above 5 µM.
`CC1CN(C2CCCC2)c2nc(Nc3ccc(C(=O)NC4CCCCC4)c(Cl)c3)ncc2N(C)C1=O` (racemic) [I-85, (rac)-2-Chloro-N-cyclohexyl-4-(9-cyclopentyl-5,7-dimethyl-6-oxo-6,7,8,9-tetrahydro-5H-pyrimido[4,5-b][1,4]diazepin-2-ylamino)-benzamide] gave a half-maximal inhibitory concentration (IC50) above 5 µM.
In the case of `CC1CN(C2CCCC2)c2nc(Nc3ccc(O)c(NC(=O)c4cccnc4)c3)ncc2N(C)C1=O` (racemic) [I-47, (rac)-N-[5-(9-Cyclopentyl-5,7-dimethyl-6-oxo-6,7,8,9-tetrahydro-5H-pyrimido[4,5-b][1,4]diazepin-2-ylamino)-2-hydroxy-phenyl]-nicotinamide] it was 0.5 to 5 µM.
To `CC1CN(C2CCCC2)c2nc(Nc3cccc(C(=O)NC4CCOCC4)c3)ncc2N(C)C1=O` (racemic) [I-71, (rac)-3-(9-Cyclopentyl-5,7-dimethyl-6-oxo-6,7,8,9-tetrahydro-5H-pyrimido[4,5-b][1,4]diazepin-2-ylamino)-N-(tetrahydro-pyran-4-yl)-benzamide] belongs 0.5 to 5 µM.
To `CN1CCC(NS(=O)(=O)c2ccc(Nc3ncc4c(n3)N(C3CCCC3)CC(C)(C)C(=O)N4C)cc2)CC1` [I-64, 4-(9-Cyclopentyl-5,7,7-trimethyl-6-oxo-6,7,8,9-tetrahydro-5H-pyrimido[4,5-b][1,4]diazepin-2-ylamino)-N-(1-methyl-piperidin-4-yl)-benzenesulfonamide] belongs 0.5 to 5 µM; to `CC1CN(C2CCCC2)c2nc(Nc3ccc4oc(-c5cccnc5)nc4c3)ncc2N(C)C1=O` (racemic) [I-77, (rac)-9-Cyclopentyl-5,7-dimethyl-2-(2-pyridin-3-yl-benzooxazol-5-ylamino)-5,7,8,9-tetrahydro-pyrimido[4,5-b][1,4]diazepin-6-one], above 5 µM.
For `COc1cc(C(=O)O)ccc1Nc1ncc2c(n1)N(C1CCCC1)C(C)CC(=O)N2C` (racemic) [I-3, (rac)-4-(9-Cyclopentyl-5,8-dimethyl-6-oxo-6,7,8,9-tetrahydro-5H-pyrimido[4,5-b][1,4]diazepin-2-ylamino)-3-methoxy-benzoic acid], the half-inhibitory concentration (IC50) was 0.5 to 5 µM.
To `COc1cc(C(=O)NC2CCN(C)CC2)ccc1Nc1ncc2c(n1)N(C1CCC(C)C1)CCC(=O)N2C` (racemic) [I-58, (rac)-3-Methoxy-4-[5-methyl-9-(3-methyl-cyclopentyl)-6-oxo-6,7,8,9-tetrahydro-5H-pyrimido[4,5-b][1,4]diazepin-2-ylamino]-N-(1-methyl-piperidin-4-yl)-benzamide] belongs below 0.5 µM; to `CC1CN(C2CCCC2)c2nc(Nc3cccc(C(=O)NC4CCCCC4)c3)ncc2N(C)C1=O` (racemic) [I-91, (rac)-N-Cyclohexyl-3-(9-cyclopentyl-5,7-dimethyl-6-oxo-6,7,8,9-tetrahydro-5H-pyrimido[4,5-b][1,4]diazepin-2-ylamino)-benzamide], above 5 µM; to `C=CCN1CC(C)C(=O)N(C)c2cnc(Nc3ccc(C(=O)NC4CCN(C)CC4)cc3OC)nc21` (racemic) [I-65, (rac)-4-(9-Allyl-5,7-dimethyl-6-oxo-6,7,8,9-tetrahydro-5H-pyrimido[4,5-b][1,4]diazepin-2-ylamino)-3-methoxy-N-(1-methyl-piperidin-4-yl)-benzamide], below 0.5 µM.
In turn, `Cc1cc(C(=O)NC2CCN(C)CC2)ccc1Nc1ncc2c(n1)N(C1CCCC1)CC(C)(C)C(=O)N2C` [I-56, 4-(9-Cyclopentyl-5,7,7-trimethyl-6-oxo-6,7,8,9-tetrahydro-5H-pyrimido[4,5-b][1,4]diazepin-2-ylamino)-3-methyl-N-(1-methyl-piperidin-4-yl)-benzamide] registered a half-maximal inhibitory concentration (IC50) below 0.5 µM.
In the case of `COc1ccc(C(=O)NCCCN(C)C)cc1Nc1ncc2c(n1)N(C1CCCC1)CC(C)C(=O)N2C` (racemic) [I-73, (rac)-3-(9-Cyclopentyl-5,7-dimethyl-6-oxo-6,7,8,9-tetrahydro-5H-pyrimido[4,5-b][1,4]diazepin-2-ylamino)-N-(3-dimethylamino-propyl)-4-methoxy-benzamide] it was below 0.5 µM.

The record behind these values is patent US7517873B2, “Substituted pyrimidodiazepines” (Hoffman-La Roche Inc., priority 2007, dated 2009).
